Source: publication doi:10.1101/2021.01.22.427858v1 (biorxiv, 2021)

These molecules were tested against T1, Human Serum Albumin (HSA) (Homo sapiens, UniProt P02768) (assay: not given). Conditions: binder.
T1 sequence (P02768 25-609): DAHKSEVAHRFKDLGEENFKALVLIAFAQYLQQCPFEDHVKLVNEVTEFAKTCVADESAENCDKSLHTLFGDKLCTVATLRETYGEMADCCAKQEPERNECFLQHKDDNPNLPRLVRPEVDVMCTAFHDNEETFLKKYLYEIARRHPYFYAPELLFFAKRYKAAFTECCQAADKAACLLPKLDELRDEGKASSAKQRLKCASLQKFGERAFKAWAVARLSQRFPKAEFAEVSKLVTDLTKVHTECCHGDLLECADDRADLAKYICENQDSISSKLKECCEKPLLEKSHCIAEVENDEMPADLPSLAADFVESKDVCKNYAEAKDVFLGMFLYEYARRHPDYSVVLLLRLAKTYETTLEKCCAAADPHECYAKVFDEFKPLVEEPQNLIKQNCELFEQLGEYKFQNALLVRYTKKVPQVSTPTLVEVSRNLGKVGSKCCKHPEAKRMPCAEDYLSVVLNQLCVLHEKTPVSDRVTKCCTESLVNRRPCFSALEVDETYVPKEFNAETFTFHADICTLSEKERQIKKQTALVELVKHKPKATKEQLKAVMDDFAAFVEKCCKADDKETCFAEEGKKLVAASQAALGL

| Compound | dTm (C) [°C] |
| --- | --- |
| Cc1c(C2(c3cc(Br)c(O)c(Br)c3C)OS(=O)(=O)c3ccccc32)cc(Br)c(O)c1Br [Bromocresol Green] | 6.29 |
| C[C@H]1O[C@@H](O[C@H]2[C@@H](O)C[C@H](O[C@H]3[C@@H](O)C[C@H](O[C@H]4CC[C@@]5(C)[C@H](CC[C@@H]6[C@@H]5CC[C@]5(C)[C@@H](C7=CC(=O)OC7)CC[C@]65O)C4)O[C@@H]3C)O[C@@H]2C)C[C@H](O)[C@@H]1O [Digitoxin] | 3.92 |
| COc1ccc2cc([C@H](C)C(=O)O)ccc2c1 [Naproxen] | 5.52 |

Same assay, conditions: ligand concentration not given; binder

| Compound | dTm (C) [°C] |
| --- | --- |
| C[C@]12CC[C@@H]3c4ccc(O)cc4CC[C@H]3[C@@H]1CC[C@@H]2O [β-Estradiol] | 0.92 |
| O=C1OC2(c3ccc(O)cc3Oc3cc(O)ccc32)c2ccccc21 [Fluorescein] | 7.95 |
| COCCc1ccc(OCC(O)CNC(C)C)cc1 (stereo not drawn) [Metoprolol] | -0.40 |
| C=CC1=C(C)/C(=C/c2[nH]c(Cc3[nH]c(/C=C4\NC(=O)C(C)=C4C=C)c(C)c3CCC(=O)O)c(CCC(=O)O)c2C)NC1=O [Bilirubin] | 0.30 |
| CC(NC(C)(C)C)C(=O)c1cccc(Cl)c1 (stereo not drawn) [Buproprion] | 0.62 |
| CCCCNc1ccc(C(=O)OCCN(C)C)cc1 [Tetracaine] | 3.16 |
| C[C@H](CS)C(=O)N1CCC[C@H]1C(=O)O [Captopril] | -0.41 |
| CCCCCCCCCC(=O)O [Decanoic Acid] | 24.56 |
| CN(C)C(=N)NC(=N)N [Metformin] | -0.31 |
| CCN(CC)CCCC(C)Nc1ccnc2cc(Cl)ccc12 (stereo not drawn) [Chloroquine] | 1.43 |
| Cn1c(=O)c2c(ncn2C)n(C)c1=O [Caffeine] | 0.47 |

What follows are molecules tested against T1, Human Serum Albumin (HSA) (assay: differential scanning calorimetry, bi-dose-response fit). Conditions: not given.

| Compound | KD1 |
| --- | --- |
| C[CH2][Hg][S]c1ccccc1C(=O)O [Thimerosal] | 3.13 ± 0.43 10^-6 M |

What follows are molecules tested against T1, Human Serum Albumin (HSA) (assay: differential scanning calorimetry). Conditions: not given.
Type: binding

| Compound | KD1 |
| --- | --- |
| CN(C)C(=N)NC(=N)N [Metformin] | 2.01 ± 0.43 10^-6 M |

What follows are molecules tested against T1, Human Serum Albumin (HSA) (assay: biochemical). Conditions: not given.
Type: binding

| Compound | Kd [µM] |
| --- | --- |
| Cc1c(C2(c3cc(Br)c(O)c(Br)c3C)OS(=O)(=O)c3ccccc32)cc(Br)c(O)c1Br [Bromocresol Green] | 3.31 ± 1.7 |
| O=C1OC2(c3ccc(O)cc3Oc3cc(O)ccc32)c2ccccc21 [Fluorescein] | 3.31 ± 1.7 |
